Reference: PubChem BioAssay (NCI)
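Five concentrations, 48 hours, 96-well plates. TGI: total growth inhibition.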 Where a SMILES comes first, the peptide text is derived from it. The star is where a group is joined. Fmoc = O=C(OCC1c2ccccc2-c2ccccc21)*; Boc = CC(C)(C)OC(=O)*

Tests used:
Assay in all cases: NCI tumour cell line growth inhibition, 48 h
A549 NSCLC = test system: A549 NSCLC
NCI-H522 lung = test system: NCI-H522 lung
MDA-N = test system: MDA-N
NCI/ADR-RES ovarian = test system: NCI/ADR-RES ovarian
EKVX NSCLC = test system: EKVX NSCLC
NCI-H226 lung = test system: NCI-H226 lung
T-47D breast = test system: T-47D breast
HCT-116 colon = test system: HCT-116 colon
SR leukemia = test system: SR leukemia
RPMI-8226 leukemia = test system: RPMI-8226 leukemia

Row | SMILES | TGI (A549 NSCLC) | TGI (NCI-H522 lung) | TGI (MDA-N) | TGI (NCI/ADR-RES ovarian) | TGI (EKVX NSCLC) | TGI (NCI-H226 lung) | TGI (T-47D breast) | TGI (HCT-116 colon) | TGI (SR leukemia) | TGI (RPMI-8226 leukemia)
1 | NC(=O)N=Nc1c2ccccc2n2[nH]ccc12 | > 100 µM | > 100 µM | > 100 µM | > 100 µM | > 100 µM | > 100 µM | 92.9 µM | > 100 µM | > 100 µM | –
2 | C=C(C)COC(=O)COCC(=O)OCC(=C)C | > 100 µM | – | > 100 µM | > 100 µM | > 100 µM | > 100 µM | > 100 µM | > 100 µM | > 100 µM | > 100 µM
3 | CC(=O)NC1=CC(=O)C=C(Cl)C1=O | > 100 µM | 84 µM | 31 µM | > 100 µM | > 100 µM | > 100 µM | > 100 µM | > 100 µM | 48.3 µM | 52.1 µM
4 | O=c1c2cc([N+](=O)[O-])cnc2sn1-c1ccc(Br)cc1 | > 100 µM | 22.6 µM | > 100 µM | > 100 µM | > 100 µM | > 100 µM | 48.1 µM | 59.3 µM | 60.7 µM | > 100 µM
5 | CC(=O)Nc1ccc2c3c(cc(O)c2c1)N(C(=O)CCCCCC(=O)Nc1ccc2c4c(cc(O)c2c1)N(C(=O)OC(C)(C)C)CC4CCl)CC3CCl (stereo not drawn) | > 55 µM | 5.78 µM | 3.56 µM | > 100 µM | > 100 µM | 9.56 µM | 7.82 µM | 14.4 µM | 4.3 µM | > 34.6 µM
6 | Cc1ccc2nnc(NS(=O)(=O)c3cc(C)c(Cl)cc3S)n2n1 | > 100 µM | > 100 µM | > 100 µM | > 100 µM | > 100 µM | > 100 µM | > 100 µM | > 100 µM | > 100 µM | > 100 µM
7 | COc1cccc(-c2cc(=O)c3cc(N4CCCC4)ccc3[nH]2)c1 | > 10 µM | < 0.001 µM | < 0.001 µM | < 0.001 µM | > 10 µM | 0.00347 µM | > 10 µM | 0.0348 µM | < 0.001 µM | 2.44 µM
8 | Nc1c(O)c(C(=O)O)cc2ccccc12 | > 100 µM | 54.2 µM | 32.3 µM | > 100 µM | > 100 µM | 99.8 µM | > 100 µM | 32.2 µM | > 100 µM | 95.7 µM
9 | C1COCCOP2(N3CC3)=NP(N3CC3)(=NP(N3CC3)(N3CC3)=N2)OCCOCCO1 (stereo not drawn) | > 100 µM | > 100 µM | > 100 µM | > 100 µM | > 100 µM | > 100 µM | > 100 µM | > 100 µM | > 100 µM | > 100 µM
10 | Cc1cc(C)nc(NS(=O)(=O)c2ccc(NC(=O)c3ccc4nc5ccccc5c(Nc5ccc(S(=O)(=O)Nc6nc(C)cc(C)n6)cc5)c4c3)cc2)n1 | > 100 µM | 53.5 µM | > 100 µM | > 100 µM | > 100 µM | > 100 µM | > 100 µM | > 100 µM | > 100 µM | > 100 µM
11 | COc1cc(C2SC(N)=Nc3c2c(C)nn3C(=O)c2ccc(Cl)cc2)ccc1O (stereo not drawn) | > 10 µM | > 10 µM | 0.406 µM | > 10 µM | > 10 µM | > 10 µM | > 10 µM | > 10 µM | > 10 µM | > 10 µM
12 | O=c1cc(-c2cccc(Br)c2)[nH]c2cc3c(cc12)OCO3 | 25.2 µM | 18.3 µM | 2 µM | 30.7 µM | – | 37 µM | 36.5 µM | 13.3 µM | > 100 µM | > 100 µM
13 | Cc1c(C=C(C#N)C#N)c(=O)n(C)c(=O)n1C | > 100 µM | > 100 µM | > 100 µM | > 100 µM | > 100 µM | > 100 µM | > 100 µM | > 100 µM | > 100 µM | > 100 µM
14 | COc1ccc(-c2cc(-c3ccccc3)nc(N)n2)c(O)c1 | > 100 µM | > 100 µM | > 100 µM | > 100 µM | > 100 µM | > 100 µM | > 100 µM | > 100 µM | > 26.2 µM | 5.76 µM
15 | C/C(CC(O)(C(F)(F)F)C(F)(F)F)=N/Nc1ccc([N+](=O)[O-])cc1[N+](=O)[O-] | > 10 µM | > 10 µM | > 10 µM | > 10 µM | > 10 µM | 6.66 µM | 8.37 µM | 4.56 µM | > 10 µM | 5.91 µM
16 | CCO/N=C(/CC)c1ccc(Br)s1 | > 100 µM | > 100 µM | > 100 µM | > 100 µM | > 100 µM | > 100 µM | > 100 µM | > 100 µM | > 100 µM | –
17 | Cc1ccc(S(=O)(=O)N/N=C2\CC3C4CCC3C2C4)cc1 (stereo not drawn) | > 100 µM | > 100 µM | > 100 µM | > 100 µM | > 100 µM | > 100 µM | > 100 µM | > 100 µM | > 100 µM | –

Row | SMILES | TGI (A549 NSCLC) | TGI (NCI-H522 lung) | TGI (MDA-N) | TGI (NCI/ADR-RES ovarian) | TGI (EKVX NSCLC) | TGI (NCI-H226 lung) | TGI (T-47D breast) | TGI (HCT-116 colon) | TGI (SR leukemia) | TGI (RPMI-8226 leukemia)
18 | CC1(C)O[C@@H](CP(c2ccc3ccccc3c2)c2ccc3ccccc3c2)[C@H](CP(c2ccc3ccccc3c2)c2ccc3ccccc3c2)O1 | > 100 µM | > 100 µM | > 100 µM | > 100 µM | > 100 µM | > 100 µM | > 100 µM | > 100 µM | > 100 µM | –
19 | NNC(=O)CSc1nnc(CCCCCCCCc2nnc(SCC(=O)NN)o2)o1 | > 100 µM | > 100 µM | > 100 µM | > 100 µM | > 100 µM | > 100 µM | > 100 µM | > 100 µM | > 100 µM | > 100 µM
20 | CC(C)[Si](OC1=CCC[C@H]2NC(=O)[C@@H](Cc3ccc([N+](=O)[O-])cc3)[C@@]12C)(C(C)C)C(C)C | 5.17 µM | 17.9 µM | 18 µM | 28 µM | 18.7 µM | – | 18.4 µM | 12.7 µM | 8.02 µM | –
21 | C=[N+](CNC(=O)CNC(=O)C(Cc1ccccc1)NC(=O)OC(C)(C)C)C(=O)CNC(=O)C(Cc1ccccc1)NC(=O)OC(C)(C)C (stereo not drawn) | > 100 µM | > 100 µM | > 100 µM | > 100 µM | > 100 µM | > 100 µM | > 100 µM | > 100 µM | > 100 µM | > 100 µM
22 | COc1cc(C2S/C(=C/c3ccccc3)C(=O)N2c2ccccn2)cc(OC)c1OC (stereo not drawn) | > 64 µM | 24.6 µM | 34.4 µM | 54 µM | 76.1 µM | > 96.4 µM | 36.3 µM | 20.6 µM | > 100 µM | 73.3 µM
23 | COc1ccc2oc3c(ccc[n+]3C)c(=O)c2c1 | > 100 µM | > 100 µM | > 100 µM | > 100 µM | > 100 µM | > 100 µM | > 100 µM | > 100 µM | > 100 µM | –
24 | COc1cc2c3c4c1OCc1c5c(cc(c1-4)CC3[N+](C)(C)CC2)OCO5 (stereo not drawn) | > 100 µM | 98 µM | > 100 µM | > 100 µM | > 100 µM | > 100 µM | > 100 µM | > 100 µM | > 100 µM | > 100 µM
25 | C[Si](C)(C)C#CCOC=C1CC1 | > 100 µM | > 100 µM | > 100 µM | > 100 µM | > 100 µM | > 100 µM | > 100 µM | > 100 µM | > 100 µM | –
26 | CC(C)(C)OC(=O)NCCCCC(NC(=O)C(Cc1c[nH]c2ccccc12)NC(=O)OCC1c2ccccc2-c2ccccc21)C(=O)O (stereo not drawn) (Fmoc-Trp-Lys(Boc)-OH; configuration not given here) | > 100 µM | – | > 100 µM | > 100 µM | > 100 µM | > 100 µM | > 100 µM | > 100 µM | 59.3 µM | 67 µM
27 | O=C(NC(Cc1ccccc1)P(=O)(O)c1ccccc1)OCc1ccccc1 (stereo not drawn) | > 100 µM | > 100 µM | > 100 µM | > 100 µM | > 100 µM | > 100 µM | > 100 µM | > 100 µM | > 100 µM | > 100 µM
28 | Cc1ccc(C)c(C(=N)c2ccccc2Cc2ccccc2)c1 | > 100 µM | 30 µM | 69.4 µM | > 100 µM | 56.8 µM | 33.9 µM | 80.6 µM | 41.5 µM | 41.7 µM | 35.4 µM
29 | CC1(C)N=C(N)N=C(N)N1CCCCc1ccccc1 | > 100 µM | 37.4 µM | > 100 µM | > 100 µM | > 100 µM | > 83 µM | > 78.1 µM | > 100 µM | > 100 µM | > 93.9 µM
30 | CCOC(=O)c1c(CN2CCOCC2)n(Cc2ccccc2)c2c1cc(O)c1nc(C)c(C)nc12 | > 100 µM | – | > 100 µM | > 100 µM | > 100 µM | > 100 µM | > 100 µM | > 100 µM | > 100 µM | > 100 µM
31 | COc1ccccc1NC1=NCC(C)S1 (stereo not drawn) | > 100 µM | > 100 µM | > 100 µM | > 100 µM | > 100 µM | > 100 µM | > 100 µM | > 100 µM | > 100 µM | > 100 µM
32 | CCOC(=O)/C=C1\C[C@H](NC(=O)OCc2ccccc2)C(=O)N1CC(=O)OCC | > 100 µM | > 100 µM | > 100 µM | > 100 µM | > 100 µM | > 100 µM | > 100 µM | > 100 µM | > 100 µM | > 100 µM
33 | CC(C)C(=O)CP(=O)(O)O | > 100 µM | > 100 µM | > 100 µM | > 100 µM | 46.1 µM | > 100 µM | > 100 µM | > 100 µM | > 100 µM | > 100 µM
